We go through one compound from paper PMC4859520, “Binding Properties of General Odorant Binding Proteins from the Oriental Fruit Moth, Grapholita molesta (Busck) (Lepidoptera: Tortricidae)” (PLoS ONE, 2016).

The target of one assay is GmolGOBP1 (Grapholita molesta, UniProt H9XTU5). Description: Fluorescence competitive binding assay with probe 1-NPN, rGmolGOBP1. The settings on record: competitive binding with 1-NPN. Here is the method:
(§1) Fluorescence binding assays were performed on a Hitachi (Tokyo, Japan) F-4500 fluorescence spectrophotometer with a 1 cm light path fluorimeter quartz cuvette. Both of the slit widths for excitation and emission were 10 nm. 1-N-phenyl-naphthylamine (1-NPN) was dissolved in HPLC purity grade methanol to yield a 1 mM stock solution. […] The probes were excited at 337 nm and emission spectra were recorded between 370 and 550 nm. […] Binding data were collected in three independent measurements.
(§2) Dissociation constants of the complex GmolGOBPs/1-NPN (K1-NPN) were calculated by a nonlinear regression binding curve, using Prism 5.0 (GraphPad Software Inc.).

The target in a further assay is GmolGOBP2 V114A (Grapholita molesta, UniProt H9XTU6, V134A). Description: Fluorescence competitive binding assay, GmolGOBP2 mutant V114A. The method, then: (§3) Fluorescence binding assays were performed on a Hitachi (Tokyo, Japan) F-4500 fluorescence spectrophotometer with a 1 cm light path fluorimeter quartz cuvette. Both of the slit widths for excitation and emission were 10 nm. 1-N-phenyl-naphthylamine (1-NPN) was dissolved in HPLC purity grade methanol to yield a 1 mM stock solution. A 2 μM solution of the protein in 20 mM Tris-HCl, pH 7.4, was titrated with aliquots of 1 mM 1-NPN to final concentrations of 1, 2, 4, 6, 8, 10, 12, 14, 16, 18, and 22 μM. The probes were excited at 337 nm and emission spectra were recorded between 370 and 550 nm. All ligands (S1 File) used in competitive binding assays were also dissolved in HPLC purity grade methanol. The final concentrations of sex pheromones were between 1 and 22 μM for each rGmolGOBP protein, whereas the concentrations of 30 synthetic plant volatiles to rGmolGOBP1 and 2 were up to 64 and 100 μM, respectively. Binding data were collected in three independent measurements.
Chain of GmolGOBP2 V114A (H9XTU6 entry or part of it V134A): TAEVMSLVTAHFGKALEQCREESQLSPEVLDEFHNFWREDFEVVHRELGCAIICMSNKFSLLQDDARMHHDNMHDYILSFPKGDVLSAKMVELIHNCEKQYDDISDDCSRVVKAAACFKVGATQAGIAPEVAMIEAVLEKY
(§4) Dissociation constants of the complex GmolGOBPs/1-NPN (K1-NPN) were calculated by a nonlinear regression binding curve, using Prism 5.0 (GraphPad Software Inc.). The inhibition constants (Ki) of the competitors were computed from the corresponding IC50 values using the equation: Ki = [IC50]/(1+[1−NPN]/K1−NPN), where [1−NPN] is the free concentration of 1−NPN and K1-NPN is the dissociation constant of the complex protein/1-NPN.
(§5) Gene-specific primers were designed in accordance with the recommended protocols of the TaKaRa MutanBEST Kit (TaKaRa, Shiga, Japan). The GmolGOBP2 coding sequence was mutated to create the three mutants GmolGOBP2 T9A (threonine to alanine at position 9), GmolGOBP2 V111A (valine to alanine at position 111), and GmolGOBP2 V114A (valine to alanine at position 114). Mutations were obtained using the TaKaRa MutanBEST Kit with Pyrobest DNA polymerase with the pMD19-T/GmolGOBP2 plasmid DNA as template. All plasmids containing mutations were verified by DNA sequencing. Mutated protein expression and enrichment were performed as described above for rGmolGOBP1 and 2. After determining concentrations, purified mutants were applied to verify the binding affinities with dodecanol and its analogs in fluorescence ligand-binding assays.

A further assay addresses GmolGOBP2 (Grapholita molesta, UniProt H9XTU6). Description: Fluorescence competitive binding assay with probe 1-NPN, rGmolGOBP2 wild-type. As to conditions: protein and 1-NPN 2 μM, pH 7.4. Here is the method:
as §1, §2

The target of a further assay is rGmolGOBP2 (Grapholita molesta, UniProt H9XTU6). The assay can be described thus: Effect of pH on binding affinity of rGmolGOBP2. The method, then:
Based on the fluorescence measurement experiments as described above, we further evaluated the effects of pH on the binding affinities of GmolGOBP2 to ligands; the binding of GmolGOBP2 to the representative ligand dodecanol was detected at six different pH values (4.0, 5.0, 6.8, 7.4, 8.0 and 8.8) in 20 mM Tris-HCl buffer. All the values of binding affinities were collected in three independent measurements. Data are reported as means±SEM. Difference in pH effect on binding affinity of rGmolGOBP2 was analyzed with one-way analysis of variance (ANOVA), followed by the Student-Newman-Keuls (S-N-K) test at α = 0.05. P<0.05 was considered statistically significant. For statistical analysis we used SPSS 16.0 software (SPSS Inc., Chicago, IL).

A further assay addresses GmolGOBP2 V111A (Grapholita molesta, UniProt H9XTU6, V131A). Description: Fluorescence competitive binding assay, GmolGOBP2 mutant V111A. The method, then:
as §3, §4, §5

The target in a further assay is GmolGOBP2 T9A (Grapholita molesta, UniProt H9XTU6, T29A). Description: Fluorescence competitive binding assay, GmolGOBP2 mutant T9A. The method, then: as §3, §4, §5
Chain of GmolGOBP2 T9A (H9XTU6 entry or part of it T29A): as the sequence (H9XTU6 entry or part of it V134A) above, with T9A, A114V counted along it
The next assay deals with rGmolOBP15. On the set-up: method as in PMID 26609640. As to conditions: cited from earlier work.

“Also recorded” adds a separate entry of the source.

Chain of rGmolGOBP2 (H9XTU6 entry or part of it): as the sequence (H9XTU6 entry or part of it V134A) above, with A114V counted along it
Chain of GmolGOBP2 (H9XTU6 entry or part of it): as the sequence (H9XTU6 entry or part of it V134A) above, with A114V counted along it
Chain of GmolGOBP2 V111A (H9XTU6 entry or part of it V131A): as the sequence (H9XTU6 entry or part of it V134A) above, with V111A, A114V counted along it
Chain of GmolGOBP1 (H9XTU5 entry or part of it): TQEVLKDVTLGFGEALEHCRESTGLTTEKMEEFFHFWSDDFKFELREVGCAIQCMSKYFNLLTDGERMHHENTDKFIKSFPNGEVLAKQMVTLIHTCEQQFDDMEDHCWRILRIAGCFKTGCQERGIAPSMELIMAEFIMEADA

For the compound `CCCCCCCCCCCCO` [12:OH, dodecanol], at GmolGOBP1, the “binding to rGmolGOBP1 (in words)” value is reported as “did not bind”. The Ki on GmolGOBP2 V114A was 1780 ± 130 nM; at GmolGOBP2 (calculated from IC50, read-out: GmolGOBP2 Ki), 1220 nM; at GmolGOBP2 V111A, 1350 ± 220 nM; at GmolGOBP2 T9A, 6040 ± 170 nM; on rGmolOBP15 it was 3240 nM. In addition, the “affinity of V114A mutant versus wild-type (in words)” value on GmolGOBP2 V114A (V114A versus wild-type rGmolGOBP2) is given as “slightly lower affinities”. The IC50 at GmolGOBP2 (displacing half of initial fluorescence, read-out: GmolGOBP2 IC50) worked out at 1780 ± 230 nM. In addition, the “binding affinity of rGmolGOBP2 at pH 4.0 (in words)” value at rGmolGOBP2 (pH 4.0, 20 mM Tris-HCl) is “weak ability”. In addition, on rGmolGOBP2 (pH 7.4, 20 mM Tris-HCl, six pH values 4.0 to 8.8 compared), the “binding affinity of rGmolGOBP2 at pH 7.4 (in words)” value is “maximum value; also recorded: pronounced binding affinity”. Moreover, at GmolGOBP2 V111A (V111A versus wild-type rGmolGOBP2), the “affinity of V111A mutant versus wild-type (in words)” value is given as “slightly lower affinities”. For the same compound, the “decrease in affinity of T9A mutant” value at GmolGOBP2 T9A (T9A versus wild-type rGmolGOBP2) was 3-5 fold.

As usually defined, the Ki is a dissociation constant, usually derived from enzyme kinetics or from competition with a known ligand. As a reminder, the IC50 is the concentration that gives 50% inhibition.
